# Data taken from patent US5830770A, “Hapten-protein conjugates for use in detection of organophosphorus compounds” (priority 1993, dated 1998).
# Where two headings read alike, the source gives them in different places.
# How the values were obtained:
# generic antibodies = test: Relative inhibition of binding of generic antibodies to hapten conjugate; set-up: species or system rabbit; conditions: inhibition at 100 μg/ml minus inhibition at 0.1 μg/ml organophosphate
# Protocol: (§1) Assay was carried out in the same manner as Example 5 with the following modifications. Antisera was diluted 1:2000 with 1% BSA in PBST and 100 μl was incubated for 2 hours at 25° C. with 100 μl of each concentration of the unconjugated OP--in this case the generic part--in a microtitration plate. Concentrations of OP ranged from 200 to 0.001 μg ml^-1.
# antisera from rabbit 20 = type: binding; set-up: key to cross reactivity by inhibition ELISA, Rabbit 20: +++: strong; ++: medium; +: weak reaction; poor: slight; -: none; conditions: for cross reactivity by inhibition ELISA, Rabbit 20: antisera 1:2000, 2 hours at 25° C.; for concentration for 50% inhibition: Rabbit 20
# Protocol: (§2) An ELISA was used to screen the antisera for polyclonal antibodies to the generic hapten/conjugate of the invention using the following protocol. Microtitre plates (Costar) were coated with the appropriate hapten conjugate with ovalbumin by diluting that in 0.05M sodium hydrogen carbonate/sodium carbonate buffer (pH 9.6) to give an optimum protein concentration of 1 μg/ml previously determined by chequerboard titration; protein found by Bradford assay. 100 μl was added to each microtitre plate well and the plates placed in a moist chamber overnight, washed 3 times with 0.15 phosphate buffered saline pH7.2 with 0.05% Tween 20[RTM]: PBST), and blotted dry. Blocking was carried out by adding 250 μl per well of 5% skimmed milk for 1 hour at 25° C.
# (§3) After two further washings the coated microplates were stored at -20° C. until required, whereon they were washed once with PBST. Antisera were diluted (1/1000 for general screening or doubling dilutions up to 1/512,000 for titration assays) in PSBT, applied to microtitre wells in triplicate in 50 μl amounts and incubated in a moist chamber at 25° C. for 1 hour (appropriate positive and negative controls were included--PBST, negative rabbit serum and positive serum when it had been produced). Wells were then washed 3 times in PBST and 200 μl of a 1:1500 dilution of swine anti-rabbit immunoglobulin conjugated to horseradish peroxidase (DAKO) was added to each well. Plates were incubated once more for 1 hour at 25° C. then washed 3 times with PBST.
# (§4) Tetramethylbenzidine (TMB) enzyme substrate solution was prepared by adding 400 μl of 6.0 g/l TMB in DMSO to 24.5 ml of 0.1M sodium acetate buffer pH5.5 with 100 μl of 1% H2 O2 and 100 μl added to the wells. The microplates were incubated for 15 minutes in the dark at 25° C. before the reaction was stopped by adding 50 μl of 2.5M H2 SO4 and the absorbance read at 450 nm against air. Results: are given below with those of Example 6.
# as §1
# (§5) Cross reactivity of antisera from rabbits 19, 20 and 21 by inhibition ELISA with the various organophosphorus pesticides is shown in Table 5 in which concentration (μg ml^-1) for 50% inhibition to occur is given together with the diluent in which this is achieved--PBST or % methanol in PBST for figures.
# antisera from rabbit 21 = type: binding; set-up: key: +++: strong; ++: medium; +: weak reaction; poor: slight; -: none; conditions: antisera 1:2000, 2 hours at 25° C.
# Protocol: as §2, §3, §4, §1, §5
# antisera from rabbit 19 = type: binding; set-up: key: +++: strong; ++: medium; +: weak reaction; poor: slight; -: none; conditions: antisera 1:2000, 2 hours at 25° C.
# Protocol: as §2, §3, §4, §1, §5
Compound,Relative inhibition of binding of generic antibodies to hapten conjugate as % of hapten + spacer inhibition (generic antibodies) [%],"cross reactivity by inhibition ELISA, Rabbit 20 (antisera from rabbit 20)","cross reactivity by inhibition ELISA, Rabbit 21 (antisera from rabbit 21)","cross reactivity by inhibition ELISA, Rabbit 19 (antisera from rabbit 19)",concentration for 50% inhibition (antisera from rabbit 20; diluent PBST) [µg/mL],concentration for 50% inhibition (antisera from rabbit 20; diluent 10% methanol in PBST) [µg/mL]
"CCOP(=O)(OCC)OC(=CCl)c1ccc(Cl)cc1Cl [Chlorfenvinphos, chlorfenvinphos]",33.4,+,+,-,,
COP(=S)(OC)Oc1nc(Cl)c(Cl)cc1Cl [Chlorpyrifos-methyl],29.2,poor,poor,poor,,
"COP(=O)(OC)OC=C(Cl)Cl [Dichlorvos, dichlorvos]",60.0,++,+,++,91.1,
"CNC(=O)CSP(=S)(OC)OC [Dimethoate, dimethoate]",41.4,++,+,-,,> 150
"CCOc1cc(OP(=S)(OC)OC)nc(CC)n1 [Etrimfos, etrimfos]",30.8,+,poor,-,,
"COP(=S)(OC)Oc1ccc([N+](=O)[O-])c(C)c1 [Fenitrothion, fenitrothion]",90.1,+++,+,+,,4.8
O=C(O)CNCP(=O)(O)O [Glyphospate],,-,-,-,,
"COP(=S)(OC)OCCCCO [Hapten + spacer, (CH3 O)2 P(S)--O--(CH2)4 --OH]",100.0,+++,+++,+++,3.0,
"CCOC(=O)CC(SP(=S)(OC)OC)C(=O)OCC (stereo not drawn) [Malathion, malathion]",38.6,+,-,-,,
"COC(=O)/C(C)=C/OP(=S)(OC)OC [Methacrifos, methacrifos]",89.1,+++,+,+,8.2,
"CCN(CC)c1nc(C)cc(OP(=S)(OC)OC)n1 [Pirimiphos-methyl, pirimiphos-methyl]",21.1,poor,-,-,,
"CCNP(=S)(OC)O/C(C)=C/C(=O)OC(C)C (stereo not drawn) [Propetamphos, propetamphos]",75.9,+++,++,+,,36.2
"OCCCCO [Spacer, 1,4 butanediol]",,-,-,-,,
"COP(=O)(OC)O/C(=C\Cl)c1cc(Cl)c(Cl)cc1Cl [Tetrachlorvinphos, tetrachlorvinphos]",27.2,poor,poor,-,,
